What was measured:
[1] = Singlet oxygen production (Singlet Oxygen Sensor Green) in phantom punch biopsies; conditions: 20 μM
Protocol: For the tumor-mimicking mechanical phantom, 5 mm-deep portions of the phantom were removed via a biopsy tool with a diameter of 6.4 mm and placed into a 96-well, clear flat-bottom microplate. Singlet oxygen production was determined using Singlet Oxygen Sensor Green (SOSG) and a microplate reader before irradiation. The SOSG fluorescence was measured with excitation/emission wavelengths of 504/525 nm. The samples were then irradiated with a 690 nm continuous-wave laser at various radiant exposures, and singlet oxygen production was measured using SOSG and the microplate reader after irradiation. The difference between the obtained SOSG fluorescence values between pre- and post-irradiance samples constituted the relative singlet oxygen production of that particular punch biopsy sample.
Table 4 details a strategy for measuring the singlet oxygen production of a sample (e.g., phantom specimen from a punch biopsy). […] 0 μM (EC-Ethanol only), phantom only, and BPD only (dissolved in DMSO) groups were included as negative controls, while the Rose Bengal group (type II photosensitizer capable of generating singlet oxygen via 525 nm light absorption) was included as a positive control. This strategy can be applied to estimate the relative production of singlet oxygen of photosensitizers in other liquid needle injections.
Upon red light (690 nm) activation of BPD-EC-EtOH, the fluorescence signal generated from BPD can be used for imaging of the depot, as shown in FIG. 6E.

[2] = Stability of BPD stock solution; format: physicochemical; conditions: 5 mg BPD powder in 1 mL dimethyl sulfoxide, wrapped in aluminum foil
Protocol: To prepare the BPD stock solution, 5 mg of the BPD powder was dissolved with 1 mL of dimethyl sulfoxide in a 2 mL cryovial container. The molarity of the sample was confirmed with a microplate reader using the established molar extinction coefficient of BPD in dimethyl sulfoxide (DMSO; ˜34,895 M^−1 cm^−1 at 687 nm). The container was wrapped in aluminum foil and stored in a −20° C. freezer.

Compound | Post-irradiation RFU ([1]; SOSG fluorescence 504/525 nm) [RFU] | Pre-irradiation RFU ([1]; SOSG fluorescence 504/525 nm) [RFU] | Relative singlet oxygen production (SOSG fluorescence difference) ([1]; difference post- minus pre-irradiation) [RFU] | stability of reconstituted stock solution (in words) [2]
O=C([O-])c1c(Cl)c(Cl)c(Cl)c(Cl)c1-c1c2cc(I)c(=O)c(I)c-2oc2c(I)c([O-])c(I)cc12.[Na+].[Na+] [Rose Bengal] | 64703 | 18345 | 46358 | –
benzoporphyrin derivative [BPD] | – | – | – | generally stable at −20 °C for several months

From patent US20250161453A1, “LIGHT-ACTIVATABLE, SUSTAINED-EXPOSURE ETHANOL INJECTION” (University of Maryland, College Park, priority 2022, published 2025)
